Results: patent US10238670B2, “9-aminomethyl minocycline compounds and methods of use thereof in urinary tract infection (UTI) treatment” (Paratek Pharmaceuticals, Inc., priority 2016, dated 2019)
Values after ≈ are worked out from the molar mass of the structure shown. Where two headings read alike, the source gives them in different places.

Experiments:
Assay in all cases: In vitro MIC, 2010 surveillance isolates
[1] = test system: K. pneumoniae ESBL−; assay type: cell-based, Klebsiella pneumoniae
[2] = test system: E. faecalis VNS; assay type: cell-based; conditions: for % R (resistance): CLSI breakpoints
[3] = test system: MS CoNS; assay type: cell-based, Coagulase-Negative Staphylococcus
[4] = test system: Enterobacter spp; assay type: cell-based
[5] = test system: K. oxytoca; assay type: cell-based
[6] = test system: MSSA; assay type: cell-based
[7] = test system: E. coli ESBL+; assay type: cell-based, Escherichia coli
[8] = test system: MRSA; assay type: cell-based
[9] = test system: E. faecalis VS; assay type: cell-based

C[C@H]1COc2c(N3CCN(C)CC3)c(F)cc3c(=O)c(C(=O)O)cn1c23 [Levofloxacin]
% R (resistance) ([1]; Asia/Pac, Eucast breakpoints): 5.3% | MIC90 ([1]; Asia/Pac, N=189): 1 µg/mL (≈ 2.77 µM) | % R (resistance) ([1]; Europe, Eucast breakpoints): 4.2% | MIC90 ([1]; Europe, N=361): ≤ 0.5 µg/mL | % R (resistance) ([1]; L. Amer, CLSI breakpoints): 7.5% | MIC90 ([1]; L. Amer, N=160): 1 µg/mL (≈ 2.77 µM) | % R (resistance) ([1]; N America, CLSI breakpoints): 1.9% | MIC90 ([1]; N America, N=671): ≤ 0.5 µg/mL | range of MICs (N <10, shown instead of MIC90) ([2]; Asia/Pac, N=1): >4 | % R (resistance) ([2]; L. Amer): 100% | range of MICs (N <10, shown instead of MIC90) ([2]; L. Amer, N=7): > 4 | % R (resistance) ([2]; N America): 97.4% | MIC90 ([2]; N America, N=38): > 4 µg/mL | % R (resistance) ([3]; Asia/Pac, Eucast breakpoints): 16.7% | MIC90 ([3]; Asia/Pac, N=18): > 4 µg/mL | % R (resistance) ([3]; Europe, Eucast breakpoints): 9.7% | MIC90 ([3]; Europe, N=185): 2 µg/mL (≈ 5.53 µM) | % R (resistance) ([3]; L. Amer, CLSI breakpoints): 6% | MIC90 ([3]; L. Amer, N=67): ≤ 0.5 µg/mL | % R (resistance) ([3]; N America, CLSI breakpoints): 23.6% | MIC90 ([3]; N America, N=191): > 4 µg/mL | % R (resistance) ([4]; Asia/Pac, Eucast breakpoints): 1.9% | MIC90 ([4]; Asia/Pac, N=52): ≤ 0.5 µg/mL | % R (resistance) ([4]; Europe, Eucast breakpoints): 73% | MIC90 ([4]; Europe, N=82): 1 µg/mL (≈ 2.77 µM) | % R (resistance) ([4]; L. Amer, CLSI breakpoints): 9.5% | MIC90 ([4]; L. Amer, N=42): 4 µg/mL (≈ 11.1 µM) | % R (resistance) ([4]; N America, CLSI breakpoints): 1% | MIC90 ([4]; N America, N=101): ≤ 0.5 µg/mL | % R (resistance) ([5]; Asia/Pac, Eucast breakpoints): 0% | MIC90 ([5]; Asia/Pac, N=17): ≤ 0.5 µg/mL | % R (resistance) ([5]; Europe, Eucast breakpoints): 3.2% | MIC90 ([5]; Europe, N=158): ≤ 0.5 µg/mL | % R (resistance) ([5]; L. Amer, CLSI breakpoints): 16% | MIC90 ([5]; L. Amer, N=25): > 4 µg/mL | % R (resistance) ([5]; N America, CLSI breakpoints): 1.7% | MIC90 ([5]; N America, N=177): ≤ 0.5 µg/mL | % R (resistance) ([6]; Asia/Pac, Eucast breakpoints): 5.9% | MIC90 ([6]; Asia/Pac, N=641): ≤ 0.5 µg/mL | % R (resistance) ([6]; Europe, Eucast breakpoints): 5.5% | MIC90 ([6]; Europe, N=2109): ≤ 0.5 µg/mL | % R (resistance) ([6]; L. Amer, CLSI breakpoints): 2.2% | MIC90 ([6]; L. Amer, N=590): ≤ 0.5 µg/mL | % R (resistance) ([6]; N America, CLSI breakpoints): 10.8% | MIC90 ([6]; N America, N=2373): 4 µg/mL (≈ 11.1 µM) | % R (resistance) ([7]; Asia/Pac, Eucast breakpoints): 78.1% | MIC90 ([7]; Asia/Pac, N=219): > 4 µg/mL | resistance rates for ESBL-producing clinical isolates ([7]; E. coli): 76.5% | MIC90 ([7]; Escherichia coli, ESBL-producing E. coli, read-out: MIC90): > 4 µg/mL | % R (resistance) ([7]; Europe, Eucast breakpoints): 79.2% | MIC90 ([7]; Europe, N=274): > 4 µg/mL | % R (resistance) ([7]; L. Amer, CLSI breakpoints): 81% | MIC90 ([7]; L. Amer, N=168): > 4 µg/mL | % R (resistance) ([7]; N America, CLSI breakpoints): 74.6% | MIC90 ([7]; N America, N=134): > 4 µg/mL | % R (resistance) ([8]; Asia/Pac, Eucast breakpoints): 70.6% | MIC90 ([8]; Asia/Pac, N=428): > 4 µg/mL | % R (resistance) ([8]; Europe, Eucast breakpoints): 86.4% | MIC90 ([8]; Europe, N=750): > 4 µg/mL | % R (resistance) ([8]; L. Amer, CLSI breakpoints): 84% | MIC90 ([8]; L. Amer, N=506): > 4 µg/mL | % R (resistance) ([8]; N America, CLSI breakpoints): 67.3% | MIC90 ([8]; N America, N=2508): > 4 µg/mL | MIC90 ([9]; Asia/Pac, N=214): > 4 µg/mL | MIC90 ([9]; Europe, N=669): > 4 µg/mL | % R (resistance) ([9]; L. Amer, CLSI breakpoints): 30% | MIC90 ([9]; L. Amer, N=290): > 4 µg/mL
